In this assay the target is T1, OR67d/ORCO (Drosophila melanogaster, UniProt Q9VT92).
T1 construct: endogenous receptor in OR67d olfactory neurons in vivo (wild type, or snmp1 null rescued with transgenic SNMP1); with Odorant receptor coreceptor; Sensory neuron membrane protein 1
The assay can be described thus: single sensillum electrophysiology in flies. Type of assay: cell-based. The note with it: v/v dilutions in paraffin oil, airstream.

T1 sequence (Q9VT92 whole entry): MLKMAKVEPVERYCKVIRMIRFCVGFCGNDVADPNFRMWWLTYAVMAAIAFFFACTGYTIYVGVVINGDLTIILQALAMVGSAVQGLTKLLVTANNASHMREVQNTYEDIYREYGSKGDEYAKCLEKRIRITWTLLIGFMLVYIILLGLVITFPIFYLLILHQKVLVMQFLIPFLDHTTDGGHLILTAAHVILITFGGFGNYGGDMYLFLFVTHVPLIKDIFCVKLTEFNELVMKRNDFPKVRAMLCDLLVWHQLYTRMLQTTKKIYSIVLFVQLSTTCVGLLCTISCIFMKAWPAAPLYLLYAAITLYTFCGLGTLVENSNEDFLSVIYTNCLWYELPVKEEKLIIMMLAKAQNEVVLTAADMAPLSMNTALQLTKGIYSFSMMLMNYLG
T1 sequence (Q9VNB5 whole entry partner): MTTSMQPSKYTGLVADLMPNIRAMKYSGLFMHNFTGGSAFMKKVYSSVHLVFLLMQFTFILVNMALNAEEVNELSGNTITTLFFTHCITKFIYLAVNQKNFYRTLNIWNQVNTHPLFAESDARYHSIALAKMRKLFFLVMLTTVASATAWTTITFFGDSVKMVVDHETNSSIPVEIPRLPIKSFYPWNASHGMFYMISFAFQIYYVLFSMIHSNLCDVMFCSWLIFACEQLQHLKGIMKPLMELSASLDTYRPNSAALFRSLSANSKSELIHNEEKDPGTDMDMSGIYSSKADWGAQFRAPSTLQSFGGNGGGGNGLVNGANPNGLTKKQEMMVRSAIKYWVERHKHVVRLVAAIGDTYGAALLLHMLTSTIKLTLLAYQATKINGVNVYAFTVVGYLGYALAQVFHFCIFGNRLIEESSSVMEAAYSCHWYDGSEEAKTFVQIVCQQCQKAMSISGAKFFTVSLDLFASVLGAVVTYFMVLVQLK
T1 sequence (Q9VDD3 whole entry partner): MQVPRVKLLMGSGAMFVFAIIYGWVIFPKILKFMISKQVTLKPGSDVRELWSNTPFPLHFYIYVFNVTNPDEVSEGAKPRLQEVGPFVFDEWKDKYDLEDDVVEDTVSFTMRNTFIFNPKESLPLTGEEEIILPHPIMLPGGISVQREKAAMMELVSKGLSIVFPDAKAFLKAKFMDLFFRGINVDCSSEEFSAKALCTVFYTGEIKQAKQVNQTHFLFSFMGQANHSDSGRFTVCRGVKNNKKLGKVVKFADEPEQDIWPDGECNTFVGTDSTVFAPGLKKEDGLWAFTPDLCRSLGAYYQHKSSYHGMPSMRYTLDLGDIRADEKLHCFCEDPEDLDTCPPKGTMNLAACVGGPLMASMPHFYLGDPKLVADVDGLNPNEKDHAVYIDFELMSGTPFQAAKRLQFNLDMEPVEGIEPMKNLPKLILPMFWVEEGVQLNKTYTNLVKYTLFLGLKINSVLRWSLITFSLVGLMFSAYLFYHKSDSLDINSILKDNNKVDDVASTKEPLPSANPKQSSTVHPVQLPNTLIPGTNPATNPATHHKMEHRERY

On to `CCCCCC/C=C\CCCCCCCCCCOC(C)=O` [cVA, (Z)-11-octadecenyl acetate], for which the spikes/s result was “Concentration–response curves of OR67d neurons to cVA in the indicated rescue genotypes”.
